The structures appear in SMILES notation.

The assay deals with CYLD. Nature of the assay: Immunoblot analysis of CYLD levels in Klebsiella pneumoniae infected cells. In kind it is cell-based. The note with it: U0126 10 mM; infected for 3 h; versus vehicle control. The method, then: An immunoblot analysis of CYLD levels in Klebsiella pneumoniae infected cells for 3 h in the presence of vehicle control (Kp) or PI3K inhibitor (LY294002, […]), AKT inhibitor ([…]), ERK inhibitor (U0126, […]) is shown. Membranes were reprobed for tubulin as a loading control.

Take `N#CC(=C(/N)Sc1ccccc1N)/C(C#N)=C(\N)Sc1ccccc1N` [U0126]: the “Klebsiella pneumoniae induced production of CYLD in the presence of inhibitor” value was “PI3K-AKT-ERK dependent manner”.

The values above are taken from patent US20130323284A1, “USE OF mTOR INHIBITORS TO TREAT BACTERIAL INFECTION” (JAZZYA INVESTMENTS, priority 2012, published 2013).
